What was measured:
[1] = Stability of CYZ in plasma (short-term room temperature and freeze-thaw); format: in vitro ADME, human; conditions: rat plasma
Protocol: To cover the anticipated sample treatment and storage environments during the processing of samples, the stability of CYZ in human plasma was investigated as short‐term stability at room temperature and freeze–thaw stability. In all stability tests, three replicates of three concentrations at low, medium, and high levels were treated and compared to recently prepared QC samples.

[2] = Pharmacokinetics of CYZ in human plasma after I.V administration (non-compartmental analysis); format: in vivo
Protocol: One mL of CYZ was intravenously injected into three human volunteers in good health and Using a calibrated heparinized tube, a 5 mL sample of human blood was drawn from each volunteer after 0.5, 1, 2, 4, 8 hrs. All the collected samples were centrifuged for 20 min at 4000 rpm. 1 mL of each sample was quantitatively poured into a centrifuge tube, and 1 mL acetonitrile was applied to precipitate plasma proteins, until centrifugation at 4000 rpm for 20 minutes. The clear plasma supernatant was transferred to Eppendorf tubes and held at […] until the rest of the procedure was completed.
Non-compartmental analysis (NCA) was used to measure pharmacokinetic parameters such as half-life, C max, T max, elimination rate constant, clearance, apparent volume of distribution, and area under the curve using Thermo Kinetica software (version 5.0) and PK solver software after taking human plasma samples from previously injected volunteers. In deciding the proper usage of the drug and in forecasting the impact of pharmacokinetic drug interactions, the results of pharmacokinetic research have been helpful.

[3] = intravenous, I.V administration of Emetrex 50 mg

remaining at 6 h, 30 ng/mL ([1]; 30 ng/mL, room temperature for 6 h): 97 ± 1.13% | remaining at 30 ng/mL ([1]; 30 ng/mL, three freeze thaw cycle): 97.1 ± 1.32% | remaining at 6 h, 400 ng/mL ([1]; 400 ng/mL, room temperature for 6 h): 98.03 ± 0.98% | remaining at 400 ng/mL ([1]; 400 ng/mL, three freeze thaw cycle): 96.5 ± 0.97% | remaining at 6 h, 800 ng/mL ([1]; 800 ng/mL, room temperature for 6 h): 96.1 ± 1.88% | remaining at 800 ng/mL ([1]; 800 ng/mL, three freeze thaw cycle): 97.2 ± 1.76% | Elimination rate constant (K) ([2]; I.V administration of Emetrex 50 mg): 0.274 ± 0.10 | Tmax ([2]; intravenous, 50 mg, after I.V injection): 2 h | AUC(0-inf) [2, 3]: 213 ± 7.21 µg·h/mL | AUC(0-t) [2, 3]: 22.3 ± 1.22 µg·h/mL | Cmax [2, 3]: 72.8 ± 1.56 ng/mL | half-life [2, 3]: 2.53 ± 0.43 h | Vd ([2]; intravenous, I.V administration of Emetrex 50 mg, read-out: Volume of distribution (Vd)): 0.695 ± 0.23 L
Compound: CN1CCN(C(c2ccccc2)c2ccccc2)CC1 [CYZ, 1-benzhydryl-4-methylpiperazine]

From publication PMC9095528, “Spectrofluorimetric Approach for Quantification of Cyclizine in the Presence of its Toxic Impurities in Human Plasma; in silico Study and ADMET Calculations” (Journal of Fluorescence, 2022)
